In brackets after ≈: the same amount, converted by molar mass.
Tests used:
MRSA (ATCC 33591) [1] = experiment: Bacterial intracellular pH (cFDA-SE); assay type: cell-based, S. aureus; details: control 6.57±0.10
Experimental: (§1) The definition of pHin is based on the ratio of the pH-sensitive wavelength (490 nm) to the pH-insensitive wavelength (440 nm).
(§2) First, prepare fluorescently labeled bacterial cells. MRSA and E. coli bacteria were removed from the culture in the logarithmic growth phase, and after high-speed centrifugation and washing with HEPES buffer, the bacteria were labeled with carboxyfluorescein succinimidyl ester (cFDA-SE), and the fluorescent dye was bound to the cells by incubation.
(§3) Next, PBS buffer was used to wash and remove the unbound fluorescent dye, and then the cells were suspended in the buffer and stored in a low-temperature environment. The second step was to determine the intracellular pH. The fluorescently labeled cell suspension was added to a test tube containing different concentrations of compound i and transferred to a black opaque 96-well plate for incubation. The fluorescence value was measured at specific excitation and emission wavelengths using a full-wavelength scanning multifunctional reader to calculate the intracellular pH. The last step is the calibration of the intracellular pH. The standard curve was determined using buffer solutions with different pH values to ensure accurate determination of the pH value inside the bacterial cells. […]

E. coli (ATCC 25922) [2] = experiment: Cell membrane integrity, propidium iodide staining; assay type: cell-based
Experimental: (§4) The steps for dead cell staining using propidium iodide are as follows:
(§5) At the beginning of the experiment, samples were taken from MRSA and E. coli in the logarithmic growth phase, centrifuged at 8000 rpm for 5 minutes and washed twice with 0.85% NaCl solution to remove the culture medium and other possible interfering substances. Afterwards, the bacteria were resuspended in 0.85% NaCl solution and the concentration was adjusted to approximately 1×10^8 CFU/mL.
(§6) […] After incubation, in order to mark and distinguish dead cells, 15 μM propidium iodide solution was added to each sample and incubated in the dark for 15 minutes. PI is a fluorescent dye that binds to DNA and can only penetrate into dead cells with damaged cell membranes.
(§7) Finally, the samples were observed using a fluorescence microscope or a confocal laser scanning microscope. By setting the appropriate fluorescence channel (excitation wavelength 535 nm, emission wavelength 617 nm), the red fluorescence emitted by dead cells can be detected. In this way, the effect of compound i on the lethality of bacterial cells can be intuitively evaluated and recorded, providing an experimental basis for further drug research.

E. coli (ATCC 25922) [3] = experiment: Bacterial cell morphology by FESEM; assay type: cell-based; details: 4 hours
Experimental: (§8) Observation of bacterial cell morphology using FESEM:
(§9) First, the bacterial suspension was adjusted to OD600=0.5, and then the bacteria were treated with compound i at a final concentration of 1×MIC and 4×MIC at 37° C. for 4 hours, and a control group without compound addition was set up. After treatment, the bacteria were collected by high-speed centrifugation at 6000 rpm for 10 minutes and washed three times with 10 mM PBS buffer to remove residual culture medium and drugs. Subsequently, the bacteria were fixed with 2.5% glutaraldehyde at 4° C. for 12 hours to maintain the integrity of the cell structure, and then washed again with PBS buffer three times to remove excess glutaraldehyde.
(§10) Next, the cells were subjected to a series of ethanol dehydration treatments (30%, 50%, 70%, 80%, 90% and 100% ethanol), and the treatment time of each concentration was sufficient to replace the intracellular water. After dehydration, the sample was resuspended in isoamyl acetate for 30 minutes and then centrifuged at 6000 rpm for 10 minutes to remove the supernatant. The sample was then dried and dotted on a stage with conductive glue, gold-plated to enhance the conductivity of the sample, and finally observed using a field emission scanning electron microscope (FESEM) to obtain high-resolution images of bacterial cell morphology and surface morphology. […]

MRSA (ATCC 33591) [4] = experiment: Cell membrane integrity, propidium iodide staining; assay type: cell-based, S. aureus
Experimental: as §4, §5, §6, §7

MRSA (ATCC 33591) [5] = experiment: Bacterial cell morphology by FESEM; assay type: cell-based, S. aureus; details: 4 hours
Experimental: as §8, §9, §10

E. coli (ATCC 25922) [6] = experiment: Bacterial intracellular pH (cFDA-SE); assay type: cell-based; details: control 6.16±0.10
Experimental: as §1, §2, §3

[7] = system: C. pneumoniae CWL-029, VR-1310; experiment: Anti-mycoplasma MIC; assay type: cell-based; details: Chlamydia pneumoniae, read-out: Antimycoplasma activity (MIC) CP-CWL-029^h
Experimental: The antimycoplasma activity was quantified using the […]. Retapamulin was used as a positive control to test the minimum inhibitory concentration of 3H-imidazo[4,5-C]pyridine pleuromutilin onium salt derivatives.
(1) Preparation of KM2 medium: Weigh 38.9 g of KM2 medium, add it to 800 mL of distilled water, boil to dissolve, sterilize under high pressure at 115° C. for 20 min, and set aside.
(2) Preparation of bacterial stock solution: Take 0.5 mL of Mhp-J^a, Mhp-LH^b, Mhr-BTS-7^c, MG-R^d, MS-WVU1853^e, MP-M129^f, CP-AR-39^g, CP-CWL-029^h, CP-TW-183^i, MH-PG-21^j, MG-G37^k cultured to the logarithmic phase and transfer it to 4.5 mL of KM2 liquid culture medium. When the culture medium turns yellow, divide each bacterium into 0.5 mL per tube and store it at −70° C. as bacterial stock solution.
(3) Determination of bacterial titer (color change unit, CCU): Take out the bacterial stock solution stored at −70° C., melt and balance to room temperature, add 0.18 mL KM2 medium to each well of the middle 4 rows of the 96-well plate (i.e. 4 parallels), take 0.02 mL and add it to the first column, dilute 10 times to 10^−11, and set up a negative control containing only KM2 medium (12th column). After sealing, put it in a 37° C. incubator and observe the results every day. The highest dilution at which the color of the medium changes is the CCU/mL of the strain.
Take an appropriate amount of seed bacterial solution and dilute it to 10^4 CCU/mL in turn according to its titer. Add drugs of each dilution in a 96-well plate in turn, and then add an equal amount of diluted bacterial solution. Set 200 μL of diluted mycoplasma bacterial solution as a positive control, 200 μL of KM2 liquid culture medium as a negative control, and set a solvent control group (10 μL of drug solvent+190 μL of mycoplasma bacterial solution). Each experiment is set up in 3 parallels. After all culture plates are sealed, they are cultured at 37° C., observed daily, and the final MIC value is recorded.

Row | SMILES | intracellular pH after treatment (MRSA (ATCC 33591) [1]; 1×MIC) | intracellular pH after treatment (MRSA (ATCC 33591) [1]; 2×MIC) | cell membrane integrity, propidium iodide red fluorescence (E. coli (ATCC 25922) [2]; 1×MIC) | cell membrane integrity, propidium iodide red fluorescence (E. coli (ATCC 25922) [2]; 2×MIC) | bacterial cell morphology (FESEM) (E. coli (ATCC 25922) [3]; 1×MIC) | bacterial cell morphology (FESEM) (E. coli (ATCC 25922) [3]; 4×MIC) | cell membrane integrity, propidium iodide red fluorescence (MRSA (ATCC 33591) [4]; 1×MIC) | cell membrane integrity, propidium iodide red fluorescence (MRSA (ATCC 33591) [4]; 2×MIC) | bacterial cell morphology (FESEM) (MRSA (ATCC 33591) [5]; 1×MIC) | bacterial cell morphology (FESEM) (MRSA (ATCC 33591) [5]; 4×MIC) | intracellular pH after treatment (E. coli (ATCC 25922) [6]; 1×MIC) | intracellular pH after treatment (E. coli (ATCC 25922) [6]; 2×MIC) | MIC [7] [µg/mL]
1 | C=C[C@]1(C)C[C@@H](OC(=O)CSc2nc3cc[n+](Cc4ccc(C)cc4)cc3[nH]2)[C@]2(C)[C@H](C)CC[C@]3(CCC(=O)[C@H]32)[C@@H](C)[C@@H]1O [Compound i, 5-(4-methylbenzyl)-2-((2-(((3aR,4R,5R,7S,8S,9R,9aS,12R)-8-hydroxy-4,7,9,12-tetramethyl-3-oxo-7-vinyldecahydro-4,9a-propancyclopenta[8]cyclo-5-yl)oxy)-2-oxoethyl)thio)-3H-imidazo[4,5-C]pyridine-5-ium] | 4.66±0.12 | 2.96±0.09 | obvious red fluorescence was observed | red fluorescence was significantly enhanced | depressions on the bacterial surface were observed | obvious wrinkles and shrinkage on the bacterial surface | obvious red fluorescence was observed | red fluorescence was significantly enhanced | showed an irregular shape | obvious shrinkage or deformation | 4.79±0.10 | 3.58±0.10 | –
2 | C=C[C@]1(C)C[C@@H](OC(=O)CS[C@@H]2C[C@H]3CC[C@@H](C2)N3C)[C@]2(C)[C@H](C)CC[C@]3(CCC(=O)[C@H]32)[C@@H](C)[C@@H]1O [Retapamulin, reference compound] | – | – | – | – | – | – | – | – | – | – | – | – | 0.03 (≈ 0.0579 µM)

From patent US12275734B1, “Pleuromutilin onium salt derivative containing a 3H-imidazo[4,5-c]pyridine side chain, and a preparation method and application thereof” (SHAANXI UNIVERSITY OF SCIENCE AND TECHNOLOGY, priority 2024, dated 2025)
